Assay results as given in US10004701B2, “Methods and compositions for treating infection” (UNIVERSITY OF ROCHESTER, priority 2012, dated 2018).
Counter-ions that a name gives are not always drawn. Like-named read-outs stand apart in the source and are kept apart here.

Assays:
Assay in all cases: AK assay 384-well format, Prestwick library screening
E. faecium = format: cell-based, Enterococcus faecium; settings: 50 μM final drug concentration; for fold induction at 50 µM: Enterococcus faecium, 3 h
[1] = system: S. aureus strain USA300-0114; format: cell-based, Staphylococcus aureus; settings: 50 μM final drug concentration; for fold induction at 50 µM: Staphylococcus aureus, USA300, 3 h
K. pneumoniae = format: cell-based, Klebsiella pneumoniae; settings: 50 μM final drug concentration; for fold induction at 50 µM: Klebsiella pneumoniae, 3 h
[2] = system: A. baumannii strain 98-37-09; format: cell-based, Acinetobacter baumannii; settings: 50 μM final drug concentration; for fold induction at 50 µM: Acinetobacter baumannii, 983709, 3 h
P. aeruginosa = format: cell-based, Pseudomonas aeruginosa; settings: 50 μM final drug concentration; for fold induction at 50 µM: Pseudomonas aeruginosa, 3 h
E. cloacae = format: cell-based, Enterobacter cloacae; settings: 50 μM final drug concentration; for fold induction at 50 µM: Enterobacter cloacae, 3 h
E. coli = format: cell-based, Escherichia coli; settings: 50 μM final drug concentration; for fold induction at 50 µM: Escherichia coli, 3 h

Cc1cn([C@H]2C[C@H](N=[N+]=[N-])[C@@H](CO)O2)c(=O)[nH]c1=O [Zidovudine, AZT]
AK-based Prestwick Library Screening Results, E. faecium (increase in extracellular AK activity) (E. faecium; planktonic E. faecium, cutoff for positive-scoring molecules 3-fold increase): 0.9 | AK-based Prestwick Library Screening Results, S. aureus (increase in extracellular AK activity) ([1]; planktonic S. aureus, cutoff for positive-scoring molecules 3-fold increase): 0.6 | AK-based Prestwick Library Screening Results, K. pneumoniae (increase in extracellular AK activity) (K. pneumoniae; planktonic K. pneumoniae, cutoff for positive-scoring molecules 3-fold increase): 1.2 | AK-based Prestwick Library Screening Results, A. baumannii (increase in extracellular AK activity) ([2]; planktonic A. baumannii, cutoff for positive-scoring molecules 3-fold increase): 1.8 | AK-based Prestwick Library Screening Results, P. aeruginosa (increase in extracellular AK activity) (P. aeruginosa; planktonic P. aeruginosa, cutoff for positive-scoring molecules 3-fold increase): 0.6 | AK-based Prestwick Library Screening Results, E. cloacae (increase in extracellular AK activity) (E. cloacae; planktonic E. cloacae, cutoff for positive-scoring molecules 3-fold increase): 4.2 | AK-based Prestwick Library Screening Results, E. coli (increase in extracellular AK activity) (E. coli; planktonic E. coli, cutoff for positive-scoring molecules 3-fold increase): 2.1

Retrorsine
AK-based Prestwick Library Screening Results, E. faecium (fold increase in extracellular AK activity) (E. faecium; planktonic, […]): 1.0 | AK-based Prestwick Library Screening Results, S. aureus (fold increase in extracellular AK activity) ([1]; planktonic, […]): 1.2 | AK-based Prestwick Library Screening Results, K. pneumoniae (fold increase in extracellular AK activity) (K. pneumoniae; planktonic, […]): 1.2 | AK-based Prestwick Library Screening Results, A. baumannii (fold increase in extracellular AK activity) ([2]; planktonic, […]): 1.2 | AK-based Prestwick Library Screening Results, P. aeruginosa (fold increase in extracellular AK activity) (P. aeruginosa; planktonic, […]): 1.2 | AK-based Prestwick Library Screening Results, E. cloacae (fold increase in extracellular AK activity) (E. cloacae; planktonic, […]): 1.5 | AK-based Prestwick Library Screening Results, E. coli (fold increase in extracellular AK activity) (E. coli; planktonic, […]): 1.3

CC[C@H]1[C@@H]2C[C@H]3[C@@H]4N(C)c5ccccc5[C@]45C[C@@H]([C@H]2[C@H]5O)N3[C@@H]1O [Ajmaline]
fold induction at 50 µM (E. faecium; planktonic, […], read-out: AK-based Prestwick Library Screening Results, E. faecium (fold increase in extracellular AK activity)): 1.1 | fold induction at 50 µM ([1]; planktonic, […], read-out: AK-based Prestwick Library Screening Results, S. aureus (fold increase in extracellular AK activity)): 1 | fold induction at 50 µM (K. pneumoniae; planktonic, […], read-out: AK-based Prestwick Library Screening Results, K. pneumoniae (fold increase in extracellular AK activity)): 0.9 | fold induction at 50 µM ([2]; planktonic, […], read-out: AK-based Prestwick Library Screening Results, A. baumannii (fold increase in extracellular AK activity)): 1.1 | fold induction at 50 µM (P. aeruginosa; planktonic, […], read-out: AK-based Prestwick Library Screening Results, P. aeruginosa (fold increase in extracellular AK activity)): 1.1 | fold induction at 50 µM (E. cloacae; planktonic, […], read-out: AK-based Prestwick Library Screening Results, E. cloacae (fold increase in extracellular AK activity)): 1.6 | fold induction at 50 µM (E. coli; planktonic, […], read-out: AK-based Prestwick Library Screening Results, E. coli (fold increase in extracellular AK activity)): 1.2

Nc1nc(N)c2nc(-c3ccccc3)c(N)nc2n1 [Triamterene]
fold induction at 50 µM (E. faecium; 384-well format, cutoff for positive-scoring molecules 3-fold increase, read-out: AK-based Prestwick Library Screening Results, E. faecium (increase in extracellular AK activity)): 0.7 | fold induction at 50 µM ([1]; 384-well format, cutoff for positive-scoring molecules 3-fold increase, read-out: AK-based Prestwick Library Screening Results, S. aureus (increase in extracellular AK activity)): 0.6 | fold induction at 50 µM (K. pneumoniae; 384-well format, cutoff for positive-scoring molecules 3-fold increase, read-out: AK-based Prestwick Library Screening Results, K. pneumoniae (increase in extracellular AK activity)): 0.5 | fold induction at 50 µM ([2]; 384-well format, cutoff for positive-scoring molecules 3-fold increase, read-out: AK-based Prestwick Library Screening Results, A. baumannii (increase in extracellular AK activity)): 1.1 | fold induction at 50 µM (P. aeruginosa; 384-well format, cutoff for positive-scoring molecules 3-fold increase, read-out: AK-based Prestwick Library Screening Results, P. aeruginosa (increase in extracellular AK activity)): 0.6 | fold induction at 50 µM (E. cloacae; 384-well format, cutoff for positive-scoring molecules 3-fold increase, read-out: AK-based Prestwick Library Screening Results, E. cloacae (increase in extracellular AK activity)): 1.2 | fold induction at 50 µM (E. coli; 384-well format, cutoff for positive-scoring molecules 3-fold increase, read-out: AK-based Prestwick Library Screening Results, E. coli (increase in extracellular AK activity)): 0.6

Nc1ccc(/N=N/c2ccccc2)c(N)n1 [Phenazopyridine hydrochloride]
fold induction at 50 µM (E. faecium; planktonic, cutoff for positive-scoring molecules 3-fold increase, read-out: AK-based Prestwick Library Screening Results, E. faecium (fold increase in extracellular AK activity)): 0.1 | fold induction at 50 µM ([1]; planktonic, cutoff for positive-scoring molecules 3-fold increase, read-out: AK-based Prestwick Library Screening Results, S. aureus (fold increase in extracellular AK activity)): 0.3 | fold induction at 50 µM (K. pneumoniae; planktonic, cutoff for positive-scoring molecules 3-fold increase, read-out: AK-based Prestwick Library Screening Results, K. pneumoniae (fold increase in extracellular AK activity)): 0.1 | fold induction at 50 µM ([2]; planktonic, cutoff for positive-scoring molecules 3-fold increase, read-out: AK-based Prestwick Library Screening Results, A. baumannii (fold increase in extracellular AK activity)): 0.1 | fold induction at 50 µM (P. aeruginosa; planktonic, cutoff for positive-scoring molecules 3-fold increase, read-out: AK-based Prestwick Library Screening Results, P. aeruginosa (fold increase in extracellular AK activity)): 0.1 | fold induction at 50 µM (E. cloacae; planktonic, cutoff for positive-scoring molecules 3-fold increase, read-out: AK-based Prestwick Library Screening Results, E. cloacae (fold increase in extracellular AK activity)): 1.4 | fold induction at 50 µM (E. coli; planktonic, cutoff for positive-scoring molecules 3-fold increase, read-out: AK-based Prestwick Library Screening Results, E. coli (fold increase in extracellular AK activity)): 0.1

CN(C)CCC(c1ccc(Br)cc1)c1ccccn1 (stereo not drawn) [Brompheniramine maleate]
fold induction at 50 µM (E. faecium; planktonic, cutoff for positive 3-fold increase, read-out: AK-based Prestwick Library Screening Results, E. faecium (fold increase in extracellular AK activity)): 1 | fold induction at 50 µM ([1]; planktonic, cutoff for positive 3-fold increase, read-out: AK-based Prestwick Library Screening Results, S. aureus (fold increase in extracellular AK activity)): 1.1 | fold induction at 50 µM (K. pneumoniae; planktonic, cutoff for positive 3-fold increase, read-out: AK-based Prestwick Library Screening Results, K. pneumoniae (fold increase in extracellular AK activity)): 1.1 | fold induction at 50 µM ([2]; planktonic, cutoff for positive 3-fold increase, read-out: AK-based Prestwick Library Screening Results, A. baumannii (fold increase in extracellular AK activity)): 1.2 | fold induction at 50 µM (P. aeruginosa; planktonic, cutoff for positive 3-fold increase, read-out: AK-based Prestwick Library Screening Results, P. aeruginosa (fold increase in extracellular AK activity)): 1.1 | fold induction at 50 µM (E. cloacae; planktonic, cutoff for positive 3-fold increase, read-out: AK-based Prestwick Library Screening Results, E. cloacae (fold increase in extracellular AK activity)): 2 | fold induction at 50 µM (E. coli; planktonic, cutoff for positive 3-fold increase, read-out: AK-based Prestwick Library Screening Results, E. coli (fold increase in extracellular AK activity)): 1.4

C=C1[C@H]2C[C@@]3([C@@H]1O)[C@@H](C[C@@H]2O)[C@]12[C@@H]4C[C@H]3[C@H]1N(CC)C[C@]4(C)CC[C@@H]2O [Napelline]
AK-based Prestwick Library Screening Results, E. faecium (fold increase in extracellular AK activity) (E. faecium; […]): 1.0 | AK-based Prestwick Library Screening Results, S. aureus (fold increase in extracellular AK activity) ([1]; […]): 1.4 | AK-based Prestwick Library Screening Results, K. pneumoniae (fold increase in extracellular AK activity) (K. pneumoniae; […]): 1.0 | AK-based Prestwick Library Screening Results, A. baumannii (fold increase in extracellular AK activity) ([2]; […]): 1.0 | AK-based Prestwick Library Screening Results, P. aeruginosa (fold increase in extracellular AK activity) (P. aeruginosa; […]): 1.1 | AK-based Prestwick Library Screening Results, E. cloacae (fold increase in extracellular AK activity) (E. cloacae; […]): 3.6 | AK-based Prestwick Library Screening Results, E. coli (fold increase in extracellular AK activity) (E. coli; […]): 1.3

CC(=O)[C@H]1CC[C@H]2[C@@H]3CC=C4C[C@@H](O)CC[C@]4(C)[C@H]3CC[C@]12C [Pregnenolone]
AK-based Prestwick Library Screening Results, E. faecium (fold increase in extracellular AK activity) (E. faecium; planktonic, […]): 1.1 | AK-based Prestwick Library Screening Results, S. aureus (fold increase in extracellular AK activity) ([1]; planktonic, […]): 1.1 | AK-based Prestwick Library Screening Results, K. pneumoniae (fold increase in extracellular AK activity) (K. pneumoniae; planktonic, […]): 1.1 | AK-based Prestwick Library Screening Results, A. baumannii (fold increase in extracellular AK activity) ([2]; planktonic, […]): 1.3 | AK-based Prestwick Library Screening Results, P. aeruginosa (fold increase in extracellular AK activity) (P. aeruginosa; planktonic, […]): 1.1 | AK-based Prestwick Library Screening Results, E. cloacae (fold increase in extracellular AK activity) (E. cloacae; planktonic, […]): 1.5 | AK-based Prestwick Library Screening Results, E. coli (fold increase in extracellular AK activity) (E. coli; planktonic, […]): 1.4

NC(=O)OCC(O)COc1ccc(Cl)cc1 (stereo not drawn) [Chlorphensin carbamate]
AK-based Prestwick Library Screening Results: E. faecium (increase in extracellular AK activity) (E. faecium; planktonic E. faecium, 384-well, cutoff for positive-scoring molecules 3-fold increase): 0.9 | AK-based Prestwick Library Screening Results: S. aureus (increase in extracellular AK activity) ([1]; planktonic S. aureus, 384-well, cutoff for positive-scoring molecules 3-fold increase): 1.0 | AK-based Prestwick Library Screening Results: K. pneumoniae (increase in extracellular AK activity) (K. pneumoniae; planktonic K. pneumoniae, 384-well, cutoff for positive-scoring molecules 3-fold increase): 1.1 | AK-based Prestwick Library Screening Results: A. baumannii (increase in extracellular AK activity) ([2]; planktonic A. baumannii, 384-well, cutoff for positive-scoring molecules 3-fold increase): 1.3 | AK-based Prestwick Library Screening Results: P. aeruginosa (increase in extracellular AK activity) (P. aeruginosa; planktonic P. aeruginosa, 384-well, cutoff for positive-scoring molecules 3-fold increase): 1.1 | AK-based Prestwick Library Screening Results: E. cloacae (increase in extracellular AK activity) (E. cloacae; planktonic E. cloacae, 384-well, cutoff for positive-scoring molecules 3-fold increase): 1.4 | AK-based Prestwick Library Screening Results: E. coli (increase in extracellular AK activity) (E. coli; planktonic E. coli, 384-well, cutoff for positive-scoring molecules 3-fold increase): 1.2
